Measured values from patent US12054498B2, “Heteroaromatic macrocyclic ether chemotherapeutic agents” (Nuvalent, Inc., priority 2020, dated 2024).

Key:
[1] = target: T1, Ba/F3 cells CD74-ROS1 G2032R (Homo sapiens, UniProt P08922, G2032R); test: Ba/F3 cell proliferation assay, CD74-ROS1 G2032R; format: cell-based; settings: 72 hours, CellTiter-Glo
T1 construct: fusion of the C-terminus of ROS1 with the N-terminus of various partner proteins; host or cells: Ba/F3 (RIKEN), retroviral pMSCV-puro; the other entry of the earlier key: CD74 (P04233, HLA class II histocompatibility antigen gamma chain)
T1 sequence (P08922 1883-2347 G2032R limits assumed): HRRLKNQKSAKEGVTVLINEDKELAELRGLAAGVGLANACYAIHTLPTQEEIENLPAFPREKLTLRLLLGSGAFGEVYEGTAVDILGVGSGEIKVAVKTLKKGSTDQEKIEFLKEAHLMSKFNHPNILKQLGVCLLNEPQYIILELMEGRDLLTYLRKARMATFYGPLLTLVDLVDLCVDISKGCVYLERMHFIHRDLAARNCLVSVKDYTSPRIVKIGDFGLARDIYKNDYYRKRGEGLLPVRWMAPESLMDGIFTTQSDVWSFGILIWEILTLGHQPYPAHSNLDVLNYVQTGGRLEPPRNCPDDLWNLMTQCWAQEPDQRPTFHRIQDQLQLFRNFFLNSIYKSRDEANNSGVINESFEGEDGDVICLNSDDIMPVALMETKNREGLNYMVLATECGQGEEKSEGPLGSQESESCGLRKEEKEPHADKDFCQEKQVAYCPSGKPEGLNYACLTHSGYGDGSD
How it was run: (§1)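 First, retrovirally infected Ba/F3 cells were made IL-3-independent and selected with puromycin (0.8 μg/mL). Next, cells were plated and rested one day. Then compounds in 3-fold dilutions were added for 72 hours before CellTiter-Glo readout.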

[2] = target: T2, Ba/F3 cells CD74-ROS1 wild-type (wt) (Homo sapiens, UniProt P08922); test: Ba/F3 cell proliferation assay, CD74-ROS1 wild-type; format: cell-based; settings: 72 hours, CellTiter-Glo
T2 construct: fusion of the C-terminus of ROS1 with the N-terminus of various partner proteins; host or cells: Ba/F3 (RIKEN), retroviral pMSCV-puro; the other entry of the earlier key: CD74 (P04233, HLA class II histocompatibility antigen gamma chain)
T2 sequence (P08922 1883-2347 limits assumed): as the sequence (P08922 1883-2347 G2032R limits assumed) above, with R150G counted along it
How it was run: as §1

Ba/F3 cells TPM3-TRKA = target: T3, Ba/F3 cells TPM3-TRKA (Homo sapiens, UniProt P04629); test: Ba/F3 cell proliferation assay, TPM3-TRKA; format: cell-based; settings: 72 hours, CellTiter-Glo, read-out: TPM3-NTRK1-wt IC50
T3 construct: host or cells: Ba/F3 (RIKEN), retroviral pMSCV-puro; the other entry of the earlier key: TPM3 (P06753, Tropomyosin alpha-3 chain)
T3 sequence (P04629 510-796 limits assumed): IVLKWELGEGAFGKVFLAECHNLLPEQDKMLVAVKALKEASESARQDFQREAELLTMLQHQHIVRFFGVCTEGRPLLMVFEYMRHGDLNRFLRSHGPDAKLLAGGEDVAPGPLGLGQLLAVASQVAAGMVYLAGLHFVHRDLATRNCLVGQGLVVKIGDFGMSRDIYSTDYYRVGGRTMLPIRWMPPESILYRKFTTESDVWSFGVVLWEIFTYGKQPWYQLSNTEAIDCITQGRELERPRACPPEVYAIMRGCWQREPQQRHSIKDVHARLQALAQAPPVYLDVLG
How it was run: (§2)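 Ba/F3 lines stably expressing the fusion (retroviral pMSCV-puro, selected by IL-3 withdrawal plus puromycin 0.8 μg/mL, monoclonal) were seeded at 1,000 cells/well, dosed next day with 3-fold compound dilutions, and incubated 72 hours. CellTiter-Glo luminescence gave percent inhibition; IC50 by four-parameter logistic fit.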

ROS1-G2032R = target: T4, ROS1-G2032R (Homo sapiens, UniProt P08922, G2032R); test: Biochemical kinase assay, ROS1-G2032R kinase domain; settings: apparent inhibitory constant, Morrison equation; ATP 2 mM in substrate solution; read-out: ROS1-G2032R Ki^app
T4 construct: purchased SignalChem R14-12BG
T4 sequence (P08922 1945-2222 G2032R limits assumed): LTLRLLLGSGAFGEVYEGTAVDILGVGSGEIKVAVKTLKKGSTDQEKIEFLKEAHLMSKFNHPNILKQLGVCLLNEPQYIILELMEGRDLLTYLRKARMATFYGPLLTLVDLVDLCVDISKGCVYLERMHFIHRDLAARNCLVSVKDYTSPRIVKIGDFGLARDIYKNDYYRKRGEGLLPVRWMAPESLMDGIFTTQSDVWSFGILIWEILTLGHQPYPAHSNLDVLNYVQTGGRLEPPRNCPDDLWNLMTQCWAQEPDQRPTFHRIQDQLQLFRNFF
How it was run: (§3)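 Compounds, as 100-fold DMSO stocks, were dispensed first, then substrate mix was added (ATP 2 mM, AQT0101 26 μM, in 50 mM HEPES pH 7.5/10 mM MgCl2). Reactions ran at 30 °C with fluorescence logged every 2 min over 120 min. Apparent inhibition constants came from fitting rates to Morrison's tight-binding equation.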

TRKA-wt = target: T5, TRKA-wt (Homo sapiens, UniProt P04629); test: Biochemical kinase assay, TRKA-wt kinase domain; settings: apparent inhibitory constant, Morrison equation; ATP 2 mM in substrate solution; read-out: TRKA-wt Ki^app
T5 construct: or TRKA-wt (1 nM, BPS Bio, 40280) kinase domains in buffer; purchased BPS Bio 40280
T5 sequence (P04629 510-781 limits assumed): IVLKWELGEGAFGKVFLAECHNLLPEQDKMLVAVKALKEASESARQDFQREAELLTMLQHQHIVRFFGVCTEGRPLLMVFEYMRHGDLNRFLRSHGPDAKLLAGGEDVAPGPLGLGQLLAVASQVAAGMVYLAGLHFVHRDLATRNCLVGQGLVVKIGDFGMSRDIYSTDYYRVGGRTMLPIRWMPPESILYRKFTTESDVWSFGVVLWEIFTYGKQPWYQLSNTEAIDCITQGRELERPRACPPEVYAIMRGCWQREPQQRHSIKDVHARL
How it was run: (§4)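 Apparent Ki values come from fitting initial reaction rates against inhibitor concentration to the Morrison equation. Rates were taken from the linear phase of fluorogenic substrate phosphorylation (AQT0101 for ALK and ROS1, AQT0104 for TRKA; 26 μM in substrate solution with 2 mM ATP), monitored at 485 nm over 120 min at 30° C.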

ALK L1196M/G1202R = target: T6, ALK L1196M/G1202R (Homo sapiens, UniProt Q9UM73, G1202R/L1196M); test: Biochemical kinase assay, ALK L1196M/G1202R kinase domain; settings: apparent inhibitory constant, Morrison equation; ATP 2 mM in substrate solution; read-out: ALK-L1196M-G1202R Ki^app
T6 construct: purchased SignalChem A19-12NG
T6 sequence (Q9UM73 1116-1392 L1196M/G1202R limits assumed): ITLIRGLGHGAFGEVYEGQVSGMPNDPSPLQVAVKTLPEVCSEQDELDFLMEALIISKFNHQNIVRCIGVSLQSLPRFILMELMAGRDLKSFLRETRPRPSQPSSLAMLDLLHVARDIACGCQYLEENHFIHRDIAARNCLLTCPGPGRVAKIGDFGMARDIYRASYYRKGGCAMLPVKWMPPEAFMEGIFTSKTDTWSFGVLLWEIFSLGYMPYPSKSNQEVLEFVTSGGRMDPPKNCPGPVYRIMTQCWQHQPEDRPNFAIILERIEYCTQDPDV
How it was run: as §4

ROS1-wt = target: T7, ROS1-wt (Homo sapiens, UniProt P08922); test: Biochemical kinase assay, ROS1-wt kinase domain; settings: apparent inhibitory constant, Morrison equation; ATP 2 mM in substrate solution; read-out: ROS1-wt Ki^app
T7 construct: purchased Carna 08-163
T7 sequence (P08922 1945-2222 limits assumed): as the sequence (P08922 1945-2222 G2032R limits assumed) above, with R88G counted along it
How it was run: as §3

[3] = target: T8, Ba/F3 cells EML4-ALK L1196M/G1202R (variant 1) (Homo sapiens, UniProt Q9UM73, G1202R/L1196M); test: Ba/F3 cell proliferation assay, EML4-ALK L1196M/G1202R (variant 1); format: cell-based; settings: 72 hours, CellTiter-Glo
T8 construct: echinoderm microtubule-associated protein-like 4 (EML4) gene and the ALK tyrosine kinase domain; host or cells: Ba/F3 (RIKEN), retroviral pMSCV-puro; the other entry of the earlier key: EML4 (Q9HC35, Echinoderm microtubule-associated protein-like 4)
T8 sequence (Q9UM73 with tags, fused parts or gaps L1196M/G1202R): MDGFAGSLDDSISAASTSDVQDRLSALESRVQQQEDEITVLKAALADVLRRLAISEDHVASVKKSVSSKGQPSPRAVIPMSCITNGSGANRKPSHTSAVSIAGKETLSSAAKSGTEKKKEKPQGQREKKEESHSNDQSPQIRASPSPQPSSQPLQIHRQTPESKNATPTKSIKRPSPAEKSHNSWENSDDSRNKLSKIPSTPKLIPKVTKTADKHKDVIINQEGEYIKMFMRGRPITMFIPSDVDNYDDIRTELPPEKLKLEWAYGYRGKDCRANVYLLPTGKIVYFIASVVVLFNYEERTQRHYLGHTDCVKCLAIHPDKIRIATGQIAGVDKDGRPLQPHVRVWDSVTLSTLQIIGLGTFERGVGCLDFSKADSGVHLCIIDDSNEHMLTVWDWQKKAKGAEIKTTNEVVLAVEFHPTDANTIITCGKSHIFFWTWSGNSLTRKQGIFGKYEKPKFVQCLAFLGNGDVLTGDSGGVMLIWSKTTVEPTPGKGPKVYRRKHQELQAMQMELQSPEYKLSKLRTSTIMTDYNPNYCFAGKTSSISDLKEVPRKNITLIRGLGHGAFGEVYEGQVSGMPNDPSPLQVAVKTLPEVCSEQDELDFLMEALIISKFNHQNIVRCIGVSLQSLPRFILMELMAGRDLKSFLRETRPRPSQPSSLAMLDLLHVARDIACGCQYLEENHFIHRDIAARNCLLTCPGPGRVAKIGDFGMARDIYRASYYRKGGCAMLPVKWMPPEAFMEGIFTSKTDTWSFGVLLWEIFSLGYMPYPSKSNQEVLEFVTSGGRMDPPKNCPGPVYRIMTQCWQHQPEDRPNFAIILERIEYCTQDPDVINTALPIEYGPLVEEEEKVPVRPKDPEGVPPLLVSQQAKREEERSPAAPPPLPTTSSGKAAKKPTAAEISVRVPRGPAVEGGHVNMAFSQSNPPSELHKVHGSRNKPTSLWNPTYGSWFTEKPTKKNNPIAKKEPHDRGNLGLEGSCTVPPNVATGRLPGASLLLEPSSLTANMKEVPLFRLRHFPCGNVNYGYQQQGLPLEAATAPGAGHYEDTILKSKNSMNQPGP
How it was run: as §2

[4] = target: T9, Ba/F3 cells EML4-ALK wt (variant 1) (Homo sapiens, UniProt Q9UM73); test: Ba/F3 cell proliferation assay, EML4-ALK wt (variant 1); format: cell-based; settings: 72 hours, CellTiter-Glo
T9 construct: echinoderm microtubule-associated protein-like 4 (EML4) gene and the ALK tyrosine kinase domain; host or cells: Ba/F3 (RIKEN), retroviral pMSCV-puro; the other entry of the earlier key: EML4 (Q9HC35, Echinoderm microtubule-associated protein-like 4)
T9 sequence (Q9UM73 with tags, fused parts or gaps): as the sequence (Q9UM73 with tags, fused parts or gaps L1196M/G1202R) above, with M635L, R641G counted along it
How it was run: as §2

[5] = tested on: TPM3-NTRK1-wt IC50 / primary target IC50 (e.g. CD74-ROS1-wt); test: TRKA selectivity in Ba/F3 cells (TRKA potency divided by primary target potency); format: cell-based; settings: for TPM3-NTRK1-wt/CD74-ROS1-G2032R selectivity ratio: TRKA potency / CD74-ROS1-G2032R potency; for TPM3-NTRK1-wt/CD74-ROS1-wt selectivity ratio: TRKA potency / CD74-ROS1-wt potency; for TPM3-NTRK1-wt/EML4-ALK-L1196M-G1202R selectivity ratio: TRKA potency / EML4-ALK-L1196M-G1202R potency; for TPM3-NTRK1-wt/EML4-ALK-wt selectivity ratio: TRKA potency / EML4-ALK-wt potency
Description: TRKA selectivity was calculated by dividing a compound's TRKA potency by its primary target potency (e.g. TPM3-NTRK1-wt IC50/CD74-ROS1-wt IC50). Compound selectivity can be interpreted by binning ratio values: bin A for very high selectivity, ratio >30-fold; bin B for high selectivity, ratio >10-fold; bin C for moderate selectivity, ratio ≥1; and bin D for low selectivity, ratio <1. […] (nd=not determined).

ALK-wt = target: T10, ALK-wt (Homo sapiens, UniProt Q9UM73); test: Biochemical kinase assay, ALK-wt kinase domain; settings: apparent inhibitory constant, Morrison equation; ATP 2 mM in substrate solution; read-out: ALK-wt Ki^app
T10 construct: purchased Carna 08-518
T10 sequence (Q9UM73 1116-1392 limits assumed): as the sequence (Q9UM73 1116-1392 L1196M/G1202R limits assumed) above, with M81L, R87G counted along it
How it was run: as §4

IC50 [1] [nM]	IC50 [2] [nM]	IC50 (Ba/F3 cells TPM3-TRKA) [nM]	Ki (ROS1-G2032R) [nM]	Ki (TRKA-wt) [nM]	Ki (ALK L1196M/G1202R) [nM]	Ki (ROS1-wt) [nM]	IC50 [3] [nM]	IC50 [4] [nM]	Ki (ALK-wt) [nM]	SMILES	TPM3-NTRK1-wt/CD74-ROS1-G2032R selectivity ratio [5]	TPM3-NTRK1-wt/CD74-ROS1-wt selectivity ratio [5]	TPM3-NTRK1-wt/EML4-ALK-L1196M-G1202R selectivity ratio [5]	TPM3-NTRK1-wt/EML4-ALK-wt selectivity ratio [5]
50 to 500	0.1 to 50	> 500	50 to 500	> 500	50 to 500	< 50	> 500	50 to 500	< 50	C[C@H]1Oc2cc(cnc2N)-c2c(C#N)ncn2Cc2ncncc2-c2ccc(F)cc21 [Example 18, (20R)-23-amino-17-fluoro-20-methyl-21-oxa-4,6,9,11,24-pentaazapentacyclo[20.3.1.0^2,^6.0^8,^13.0^14,^19]hexacosa-1(25),2,4,8(13),9,11,14,16,18,22(26),23-undecaene-3-carbonitrile]	A (bin A for very high selectivity, ratio >30-fold)	A (bin A for very high selectivity, ratio >30-fold)	C (bin C for moderate selectivity, ratio ≥1)	A (bin A for very high selectivity, ratio >30-fold)
0.1 to 50	0.1 to 50	50 to 500	< 50	50 to 500	< 50	< 50	50 to 500	0.1 to 50	< 50	CCc1noc2c1-c1cnc(N)c(c1)O[C@H](C)c1cc(F)ccc1-c1ccnn1C2 [Example 21, (19R)-3-ethyl-16-fluoro-19-methyl-5,20-dioxa-4,8,9,23-tetraazapentacyclo[19.3.1.0^2,^6.0^8,^12.0^13,^18]pentacosa-1(24),2(6),3,9,11,13,15,17,21 (25),22-decaen-22-amine]	B (bin B for high selectivity, ratio >10-fold)	A (bin A for very high selectivity, ratio >30-fold)	C (bin C for moderate selectivity, ratio ≥1)	A (bin A for very high selectivity, ratio >30-fold)
0.1 to 50	0.1 to 50	> 500	< 50	> 500	< 50	< 50	50 to 500	0.1 to 50	< 50	C[C@H]1Oc2cc(cnc2N)-c2c(c(Cl)nn2CC2CC2)Cc2nn(C)cc2-c2ccc(F)cc21 [Example 90, (19R)-5-chloro-3-(cyclopropylmethyl)-16-fluoro-10,19-dimethyl-20-oxa-3,4,9,10,23-pentaazapentacyclo[19.3.1.0^2,^6.0^8,^12.0^13,^18]pentacosa-1(24),2(6),4,8,11,13,15,17,21(25),22-decaen-22-amine]	A (bin A for very high selectivity, ratio >30-fold)	A (bin A for very high selectivity, ratio >30-fold)	A (bin A for very high selectivity, ratio >30-fold)	A (bin A for very high selectivity, ratio >30-fold)

Continued, molecule first:

SMILES	IC50 [1] [nM]	IC50 [2] [nM]	IC50 (Ba/F3 cells TPM3-TRKA) [nM]	Ki (ROS1-G2032R) [nM]	Ki (TRKA-wt) [nM]	Ki (ALK L1196M/G1202R) [nM]	Ki (ROS1-wt) [nM]	IC50 [3] [nM]	IC50 [4] [nM]	Ki (ALK-wt) [nM]	TPM3-NTRK1-wt/CD74-ROS1-G2032R selectivity ratio [5]	TPM3-NTRK1-wt/CD74-ROS1-wt selectivity ratio [5]	TPM3-NTRK1-wt/EML4-ALK-L1196M-G1202R selectivity ratio [5]	TPM3-NTRK1-wt/EML4-ALK-wt selectivity ratio [5]
Cc1nn(CC2CC2)c2c1Cc1nn(C)nc1-c1c(F)cc(F)cc1[C@@H](C)Oc1cc-2cnc1N [Example 82, (19R)-3-(cyclopropylmethyl)-14,16-difluoro-5,10,19-trimethyl-20-oxa3,4,9,10,11,23-hexaazapentacyclo[19.3.1.0^2,^6.0^8,^12.0^13,^18]pentacosa 1(24),2(6),4,8,11,13,15,17,21(25),22-decaen-22-amine]	0.1 to 50	0.1 to 50	> 500	< 50	> 500	< 50	< 50	50 to 500	0.1 to 50	< 50	A (bin A for very high selectivity, ratio >30-fold)	A (bin A for very high selectivity, ratio >30-fold)	A (bin A for very high selectivity, ratio >30-fold)	A (bin A for very high selectivity, ratio >30-fold)
CCn1ncc2c1-c1cnc(N)c(c1)O[C@H](C)c1cc(F)ccc1-c1cc(C)nn1C2 [Example 4, (19R)-3-ethyl-16-fluoro-10,19-dimethyl-20-oxa-3,4,8,9,23-pentaazapentacyclo[19.3.1.0^2,^6.0^8,^12.0^13,^18]pentacosa-1(24),2(6),4,9,11,13,15,1 7,21 (25),22-decaen-22-amine]	0.1 to 50	0.1 to 50	50 to 500	< 50	50 to 500	< 50	< 50	50 to 500	0.1 to 50	< 50	A (bin A for very high selectivity, ratio >30-fold)	A (bin A for very high selectivity, ratio >30-fold)	C (bin C for moderate selectivity, ratio ≥1)	B (bin B for high selectivity, ratio >10-fold)
C[C@H]1Oc2cc(cnc2N)-c2c(cnn2C2CCC2)Cn2nncc2-c2ccc(F)cc21 [Example 7, (19R)-3-cyclobutyl-16-fluoro-19-methyl-20-oxa-3,4,8,9,10,23-hexaazapentacyclo[19.3.1.0^2,^6.0^8,^12.0^13,^18]pentacosa-1(24),2(6),4,9,11,13,15,17,21(25),22-decaen-22-amine]	0.1 to 50	0.1 to 50	> 500	50 to 500	> 500	< 50	< 50	50 to 500	0.1 to 50	< 50	A (bin A for very high selectivity, ratio >30-fold)	A (bin A for very high selectivity, ratio >30-fold)	B (bin B for high selectivity, ratio >10-fold)	A (bin A for very high selectivity, ratio >30-fold)
